Experimental data published in patent US11926594B1, “6′-(3-bromophenyl)-2′-ethoxy-3,4′-bipyridine-3′-carbonitrile as an antioxidant compound” (KING FAISAL UNIVERSITY, priority 2023, dated 2024).

Test: DPPH radical scavenging antioxidant test
Type: biochemical
Details: 517 nm; for Inhibition (radical scavenging inhibition): compound 3 μM in ethanol, 0.2 mL DPPH (0.75 mM), 30 minutes in the dark
Experimental: The antioxidant activity of 6′-(3-bromophenyl)-2′-ethoxy-3,4′-bipyridine-3′-carbonitrile was investigated by 2,2-diphenyl-1-picrylhydrazyl (DPPH) in vitro tests that employ vitamin C as the positive control.
The antioxidant properties of the 6′-(3-bromophenyl)-2′-ethoxy-3,4′-bipyridine-3′-carbonitrile compound were studied by adding 0.2 mL DPPH (0.75 mM)) to 6′-(3-bromophenyl)-2′-ethoxy-3,4′-bipyridine-3′-carbonitrile (3 μM) (4) in ethanol. After 30 minutes of incubation in the dark, the absorbance was read against a blank at 517 nm. Ascorbic acid (vitamin C) was used as standard antioxidants (positive control). A blank sample was prepared by 0.2 mL of DPPH in 3 mL ethanol. A negative control sample was run using ethanol instead of the sample. The radical scavenging inhibition was calculated using the following equation: […]

SMILES | antioxidant potential (DPPH) compared to vitamin C (DPPH in vitro test, vitamin C as positive control) | Inhibition (radical scavenging inhibition) [%]
CCOc1nc(-c2cccc(Br)c2)cc(-c2cccnc2)c1C#N [Product 4, 6′-(3-bromophenyl)-2′-ethoxy-3,4′-bipyridine-3′-carbonitrile] | high potential as an antioxidant compared to vitamin C | 48
O=C1O[C@H]([C@@H](O)CO)C(O)=C1O [vit c, Ascorbic acid, reference compound] |  | 74
